Laboratory results published in patent US20160113904A1, “SKIN CARE PRODUCTS COMPRISING SUBSTITUTED HYDROXYPROLINE WITH UNSATURATED FATTY ACIDS DERIVATIVES” (MEDWELL LABORATORIES LTD., priority 2013, published 2016).
“Also recorded” adds a separate entry of the source.

Experiments:
Format in all cases: in vivo, human
[1] = test system: volunteers with Atopic dermatitis; assay: Atopic dermatitis trial: side effects; details: topical product use
Description: The participants were asked to keep a record of the daily applications in a diary and to note any side effects resulting from the product application.
In addition to keeping records of side effects, volunteers were asked to immediately report any side effects, such as dryness, burning sensation, peeling of the skin, redness, etc. to 1SR.

[2] = test system: healthy female volunteers, crow's feet area around the eyes; assay: Anti wrinkle test: silicone imprints, skin roughness
Description: Ten healthy female volunteers were included and completed the study.
Silicon imprints were taken from the crow's feet area around the eyes at both treated and control sides at each time point.
A cosmetic anti wrinkle product MW-001 was applied on half of the face for four weeks by each volunteer while the other half served as a control, without any product application during the whole test period.
A computer program draws a realistic density three-dimensional image of the relief of the skin on a colour screen for a particular density of points selected for x and y axes and then the measurements data stored in the computer are processed and then evaluated.
This analysis consists of the following steps:
1. Generation of a roughness profile from the surface relief by alignment and filtering. 2. Calculation of standardized roughness parameters DIN 4768 ff). […].
A statistical comparison between the results at T0 and at T1 was made according to the Wilcoxon signed-ranks test, a very sensitive paired-samples non-parametric test for small groups with unknown distribution, where p<0.05 indicates a significant difference. The software used was SPSS 14.

[3] = test system: volunteers with Atopic dermatitis; assay: Atopic dermatitis trial: study director's evaluation of skin condition
Method: (§1) In Examples 1-3 an emulsion type O/W Creams of MWL-001 (2.5% and 5% w/w) was prepared using Emulgade® SE emulsifiers (glyceryl stearate), Ceteareth-20, cetearyl alcohol, cetyl palmitate, cetearyl alcohol-Lanette®, isopropyl myristate, caprilic/capric acid triglycerides (Myritol®318), strearic acid, a Trietanolamine and purified water, according to Ph Eur 6.0.
(§2) Ten volunteers aged 2-30 years participated in the trial. Four females and six males.
(§3) Volunteers were instructed to apply the product only on one side of the body, on the worst affected area, while the other side was defined as the control area and was not treated. The tested material, a body lotion product, was applied 1-3 times a day for a period of 4 weeks.
Each volunteer was examined at baseline (T0), after one week (T1) and after 2 weeks of using the product (T2). The investigator rated the condition of the skin according to the parameters of the size of the affected area, dryness, scale, redness, edema, lichenification and pruritus. Both the treated and the Control areas were documented with color photographs at T0, T1 and T2.
The following parameters were evaluated: • a. Lesion area • b. Dryness • c. Scales • d. Redness • e. Edema • f. Lichenificalion
The parameters mentioned above were evaluated on a scale of 0 to 5 by the study director. • 0=None • 1=Slight • 2=Moderate • 3=Severe • 4=Extreme • 5=Very Extreme
(§4) A statistical comparison between T0 and the other two time-points (T1 and T2) and between the treated and the Control areas were made according to the Wilcoxon signed-ranks test, while p<0.05 indicated a significant difference
All parameters were assessed in a scale of 0-5 where 0=none and 5=very extreme. The percentage of change was calculated at T1 and T2.

[4] = test system: volunteers with Atopic dermatitis; assay: Atopic dermatitis trial: hydration level by Corneometer; details: for Change in hydration level / Hydration level: treated area; for Hydration level: Corneometer
Method: as §2, §3
Hydration level was evaluated by Comeometer CM 825, Courage & Khazaka, CK. The probe of the Corneometer was placed on the skin at a constant pressure and measurements of skin hydration were taken. Skin hydration was recorded at baseline, after 1 week and after 2 weeks of treatment. Room temperature and humidity were kept constant.
as §4

[5] = test system: volunteers with Atopic dermatitis; assay: Atopic dermatitis trial: subjective pruritus intensity; details: for Change in Pruritus level / Pruritus level: treated area; for Pruritus level: scale 0-5
Description: as §2, §3
The volunteers were asked to assess the pruritus intensity on a 0-5 scale at T0, T1 and T2. • 0=None • 1=Slight • 2=Moderate • 3=Severe • 4=Extreme • 5=Very Extreme
as §4

[6] = test system: volunteers with psoriasis; assay: Psoriasis trial: study director's evaluation of lesions; details: for Redness level / Scale level / Thickness of the Skin / Infected area size: treated area
Method: as §1
Fifteen volunteers aged 29-73 with psoriasis.
The volunteers were instructed to use the cream at least once a day, for 4 weeks.
Volunteers were instructed to apply the product only on one side of the body, on the worst affected area at least once a day, for 4 weeks, while the other side was defined as the control area and was not treated.
Each volunteer was examined at baseline (T0), after two weeks (T1) and after 4 weeks of using the product (T2). The study Director rated the state of the skin according to the parameters of scales severity, thickness of the plaque, redness and the size of the lesions. Erythema level was documented at each time point.
The following parameters were evaluated:
a) Size of lesion b) Thickness of lesion
The parameters mentioned above were evaluated on a scale of 0 to 5 by the study director.
A statistical comparison between T0 and the other two time-points (T1 and T2) and between the treated and the Control areas were made by paired sample t-test, while p<0.05 indicated a significant difference
The results of 15 volunteers at each time point are presented in the Tables below and in the relevant Figures. All parameters were assessed in a scale of 0-5 where 0=none and 5=very extreme

[7] = after 1 and 2 weeks of treatment, only at the treated area
[8] = after 2 weeks of treatment, both sides
[9] = treated area, T0 baseline, scale 0-5
[10] = treated area, T1 after one week, scale 0-5
[11] = treated area, T2 after two weeks, scale 0-5
[12] = treated area, after 1 week of treatment
[13] = treatment area, after 4 weeks, p<0.05

With `CCC=CCC=CCC=CCC=CCC=CCC=CCCC(=O)N1CC(O)CC1C(=O)O` (stereo in doubt) [MW-001] the “Side effects / safety” value [1] was “None of the participants had side effects; also recorded: safe for use”, the Overall efficacy conclusion ([2]; rough and wrinkled skin) was “efficient for the treatment of rough and wrinkled skin” and the “Decrease of skin roughness” value ([2]; treated area, before versus after 2 weeks of use) was 10.8%. The “Decrease of skin roughness” value ([2]; treated area, before versus after 4 weeks of use) was 19.5%, the “Skin roughness improvement, statistical analysis” value ([2]; treated area, both T1 and T2, p<0.05) was “significant” and the “Scale level, statistical analysis of change” value [3, 7] was “decreased significantly”. For the same molecule, the “Dryness level, statistical analysis of change” value [3, 8] was “decreased significantly”, the “Redness level, statistical analysis of change” value [3, 8] was “decreased significantly” and the “Lichenification level, statistical analysis of change” value ([3]; after 2 weeks of treatment, only at the treated area) was “decreased significantly”. For the same molecule, the Overall efficacy conclusion ([3]; atopic dermatitis) was “very efficient in the treatment of atopic dermatitis”, the Dryness level [3, 9] was 4.1 and the Lichenification level [3, 9] was 2.8. It also gave a Redness level [3, 9] of 3.9, a Scale level [3, 9] of 2.6 and an Infected area size ([3]; treated area, T0 baseline, scale 0-5, 10 volunteers) of 4.3. It also gave a Dryness level [3, 10] of 1.8, an Infected area size [3, 10] of 3.2 and a Lichenification level [3, 10] of 2.0. For the same molecule, the Redness level [3, 10] was 2.4, the Scale level [3, 10] was 1.3 and the Dryness level [3, 11] was 1.1. For the same molecule, the Infected area size [3, 11] was 2.2, the Lichenification level [3, 11] was 1.3 and the Redness level [3, 11] was 2.3. For the same molecule, the Scale level [3, 11] was 0.9, the “Dryness level, statistical analysis of change” value [3, 12] was “decreased significantly” and the “Redness level, statistical analysis of change” value [3, 12] was “decreased significantly”. For the same molecule, the “Infected area size, statistical analysis of change” value ([3]; treated area, after 2 weeks of treatment, p<0.05, Wilcoxon) was “diminished significantly”, the “Hydration level, statistical analysis of change” value ([4]; any of the sides) was “no significant change” and the “Change in hydration level” value ([4]; Baseline) was 100%. It also gave a Hydration level ([4]; T0 baseline) of 21.1, a Hydration level ([4]; T1 after one week) of 30.7 and a Hydration level ([4]; T2 after two weeks) of 27.8. The “Change in hydration level” value ([4]; Week 1, relative to baseline) was 146%, the “Change in hydration level” value ([4]; Week 2, relative to baseline) was 132% and the “Pruritus level, statistical analysis of change” value [5, 7] was “decreased significantly”. The “Change in Pruritus level” value ([5]; Baseline) was 100%, the Pruritus level ([5]; T0 baseline) was 3.4 and the Pruritus level ([5]; T1 after one week) was 1.4. For the same molecule, the Pruritus level ([5]; T2 after two weeks) was 0.9, the “Change in Pruritus level” value ([5]; Week 1, relative to baseline) was 41% and the “Change in Pruritus level” value ([5]; Week 2, relative to baseline) was 26%. For the same molecule, the Overall efficacy conclusion [6] was “efficient in the treatment of psoriasis”, the “Lesion area size, statistical analysis of decrease” value ([6]; after 4 weeks of application) was “insignificant” and the “Scale parameter, treatment side versus control side” value ([6]; after both 2 weeks (T1) and 4 weeks (T2)) was “Significant differences”. For the same molecule, the “Redness parameter, statistical analysis of change” value ([6]; any of the sides, whole study period, p>0.05) was “No significant change”, the “Redness level” value ([6]; T0 baseline, scale 0-5) was 3.3 and the “Scale level” value ([6]; T0 baseline, scale 0-5) was 4.5. The “Thickness of the Skin” value ([6]; T0 baseline, scale 0-5) was 3.0, the “Infected area size” value ([6]; T0 baseline, scale 0-5, 15 volunteers) was 4.1 and the “Infected area size” value ([6]; T1 after two weeks, scale 0-5) was 3.8. For the same molecule, the “Redness level” value ([6]; T1 after two weeks, scale 0-5) was 3.5, the “Scale level” value ([6]; T1 after two weeks, scale 0-5) was 4.1 and the “Thickness of the Skin” value ([6]; T1 after two weeks, scale 0-5) was 2.6. The “Infected area size” value ([6]; T2 after four weeks, scale 0-5) was 3.9, the “Redness level” value ([6]; T2 after four weeks, scale 0-5) was 3.2 and the “Scale level” value ([6]; T2 after four weeks, scale 0-5) was 3.8. The “Thickness of the Skin” value ([6]; T2 after four weeks, scale 0-5) was 2.4, the “Lesion area size, statistical analysis of change” value ([6]; treatment area, after 2 weeks of application) was “significant decrease” and the “Scales parameter, statistical analysis of change” value [6, 13] was “significant improvement”. The “Thickness parameter, statistical analysis of change” value [6, 13] was “significant improvement”.
